In US20210038579A1, “Treatment Of Patients With Classic Fabry Disease” (Amicus Therapeutics, Inc., priority 2018, published 2021):

How the values were obtained:
α-Gal A mutant forms = assay: HEK assay: means over groups of GLA mutations found in enrolled patients; format: cell-based, human; conditions: 10 μM of migalastat
Method: Such mutations are also referred to herein as “HEK assay amenable” mutations.
In this assay, cDNA constructs are created. The corresponding α-Gal A mutant forms are transiently expressed in HEK-293 cells. Cells are then incubated±migalastat (17 nM to 1 mM) for 4 to 5 days. After, α-Gal A levels are measured in cell lysates using a synthetic fluorogenic substrate (4-MU-α-Gal) or by western blot. This has been done for known disease-causing missense or small in-frame insertion/deletion mutations.

[1] = Phase 3 study, ERT-naïve Fabry patients: renal function assessment (eGFRCKD-EPI, mGFRiohexol); format: in vivo, human
Method: Patient Enrollment. […] Study Design. […] Renal Function Assessment. Annualized rates of change (mL/min/1.73 m^2/year) were calculated using Chronic Kidney Disease Epidemiology Collaboration-[…]) and measured iohexol clearance-mGFRiohexol). For all outcomes except GL-3 inclusions per kidney interstitial capillary, data are pooled for patients within phenotype subgroups regardless of treatment allocation for the first six months (migalastat or placebo).

[2] = Phase 3 study, ERT-naïve Fabry patients: echocardiography (LVMi); format: in vivo, human; conditions: for mean (SD) change in LVMi: baseline (or month 6) to month 24; for LVMi change: after 24 months of treatment
Method: Patient Enrollment. […] Study Design. […] Echocardiography. LVMi, left posterior wall thickness, diastolic, interventricular septum thickness, diastolic and other parameters were assessed through blinded, centralized evaluation. For all outcomes except GL-3 inclusions per kidney interstitial capillary, data are pooled for patients within phenotype subgroups regardless of treatment allocation for the first six months (migalastat or placebo).

[3] = target: T1, α-Gal A mutant form p.Met284Thr (c.851 T > C) (Homo sapiens, UniProt P06280, M284T); assay: HEK assay: α-Gal A activity in HEK-293 cell lysate with migalastat; format: cell-based
T1 construct: expressed in transfected cells; host or cells: HEK-293
T1 sequence (P06280 32-429 M284T): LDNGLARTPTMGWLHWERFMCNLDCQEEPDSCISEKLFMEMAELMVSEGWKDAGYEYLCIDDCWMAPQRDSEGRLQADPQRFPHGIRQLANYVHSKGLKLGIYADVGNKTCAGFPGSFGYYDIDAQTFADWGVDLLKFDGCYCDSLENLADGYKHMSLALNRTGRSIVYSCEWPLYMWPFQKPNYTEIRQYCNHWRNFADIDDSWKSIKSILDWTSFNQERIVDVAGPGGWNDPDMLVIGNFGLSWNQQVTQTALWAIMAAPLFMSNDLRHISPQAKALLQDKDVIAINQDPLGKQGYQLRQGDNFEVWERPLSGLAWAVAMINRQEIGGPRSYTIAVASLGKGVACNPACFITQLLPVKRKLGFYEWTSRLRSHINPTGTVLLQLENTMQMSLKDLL
Method in brief: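 HEK-293 cells are transfected transiently with cDNA for each missense or small in-frame indel α-Gal A mutant. They are cultured ±migalastat across 17 nM to 1 mM over 4 to 5 days, after which lysate enzyme is quantified fluorogenically (4-MU-α-Gal) or by immunoblot.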

[4] = human, in vivo
Method: (§2) Study Design. Following eligibility-baseline assessments (2 months), patients were randomized to Stage 1—6 months of double-blind administration of 150 mg migalastat hydrochloride or placebo every other day. All patients completing Stage 1 were eligible to receive open-label migalastat in Stage 2 (months 6-12) and for an additional year (months 13-24) thereafter. […] Study completers were eligible to enroll in the open-label extension study for up to 5 years.
(§3) Safety Analysis and Adverse Events. Randomized patients receiving ≤1 dose were included in the safety analysis, which comprised vital signs, physical exams, electrocardiograms, clinical labs, and adverse events.

[5] = Phase 3 study, ERT-naïve Fabry patients: safety analysis and adverse events
Method: as §2, §3

plasma lyso-Gb3 = assay: Phase 3 study, ERT-naïve Fabry patients: plasma lyso-Gb3 by liquid chromatography-mass-spectroscopy; format: in vivo, human; conditions: baseline (or month 6) to month 24
Method: Globotriaosylceramide and Globotriaosylsphingosine. Plasma lyso-Gb3 and 24-hour urine GL-3 were analyzed by liquid chromatography-mass-spectroscopy using a novel stable isotope-labeled internal standard, 13C6-lyso-Gb3 (lower-limit-of-quantification: 0.200 ng/mL, 0.254 nmol/L).
(§1) For all outcomes except GL-3 inclusions per kidney interstitial capillary, data are pooled for patients within phenotype subgroups regardless of treatment allocation for the first six months (migalastat or placebo).

[6] = tested on: GL-3 inclusions per kidney interstitial capillary; assay: Phase 3 study, ERT-naïve Fabry patients: kidney histology assessment; format: in vivo, human
Text: Kidney Histology Assessment. Each patient underwent a baseline kidney biopsy, as well as repeat kidney biopsies at 6 and 12 months. The number of GL-3 inclusions per kidney interstitial capillary per patient at baseline, and at 6 and 12 months was quantitatively assessed in 300 capillaries by 3 independent pathologists blinded to treatment and visit. All values for each individual biopsy at a given time were averaged prior to statistical analysis.
Statistical Analyses for Kidney Interstitial Capillary GL-3 Substrate. The primary Stage 1 (6 month) endpoint (i population with baseline biopsies, n=64) was the proportion of patients in the migalastat and placebo groups with a ≥50% reduction in GL-3 inclusions per kidney interstitial capillary. Two other Stage 1 endpoints were assessed (modified-ITT population: randomized patients with paired baseline and month 6 biopsies; n=60): percent change in GL-3 inclusions per kidney interstitial capillary, and percent of interstitial capillaries with zero GL-3 inclusions.
Efficacy analyses for GL-3 inclusions per kidney interstitial capillary and other pre-specified endpoints in Stage 2 (months 6-12) and the open-label-extension (months 12-24) were based on the modified intention to treat (mITT)—population consisting of randomized patients with mutant α-Gal A enzyme shown to be suitable for migalastat treatment by the validated assay; n=50).
as §1

[7] = GLA mutations of enrolled patients reported as associated with the classic phenotype in the literature
[8] = overall amenable population, baseline to month 24
[9] = +10 μM migalastat, HEK-293 cell lysate, mean ± SEM, n = 20
[10] = open-label-extension, 6/57 patients

## OC[C@H]1NC[C@H](O)[C@@H](O)[C@H]1O [migalastat]
α-Gal A mutant forms; [7]
  mean absolute increase in α-Gal A activity: 24.8 % of WT
  mean activity increase over baseline: 8.2 fold over baseline
α-Gal A mutant forms; all other mutations
  mean absolute increase in α-Gal A activity: 24.5 % of WT
  mean activity increase over baseline: 6.8 fold over baseline
[1]; classic male subgroup, baseline (or month 6 for patients randomized to placebo) to month 24, 150 mg migalastat hydrochloride every other day
  mean (SD) annualized rate of change in eGFRCKD-EPI: −0.3 (3.76) mL/min/1.73 m^2
[1]; classic males, baseline (or month 6) to month 24
  mean (SD) annualized rate of change in mGFRiohexol: −3.0 (6.04) mL/min/1.73 m^2
[1]; classic males, baseline to month 24
  median change in mGFRiohexol: -1.03 mL/min/1.73 m²
[1]; one classic patient, month 6 to month 24
  reduction in mGFRiohexol in one classic patient: -16 mL/min/1.73 m²
[1]; other patients subgroup, baseline (or month 6) to month 24
  mean (SD) annualized rate of change in eGFRCKD-EPI: −0.3 (4.47) mL/min/1.73 m^2
[1]; other patients, baseline (or month 6) to month 24
  mean (SD) annualized rate of change in mGFRiohexol: −1.0 (6.66) mL/min/1.73 m^2
[1]; other patients, baseline to month 24
  median change in mGFRiohexol: -0.34 mL/min/1.73 m²
[1]; [8]
  annualized change in eGFRCKD-EPI: −0.3 (0.66) mL/min/1.73 m^2
  annualized change in mGFRiohexol: −1.5 (1.33) mL/min/1.73 m^2
[2]; classic male patients, age range 16-61 years
  classic male patients with data reporting a reduction in LVMi: 7/8
[2]; classic males
  mean (SD) change in LVMi: −16.7 (18.64) g/m^2
[2]; other patients
  mean (SD) change in LVMi: −3.2 (18.66) g/m^2
[2]; overall migalastat-treated population
  LVMi change: −7.7 g/m^2
[2]; patients with LVH
  LVMi change: −18.6 g/m^2
[3]; 10 μM migalastat
  α-Gal A activity at 10 μM (fold over baseline): 8.33 fold over baseline
[3]; [9]
  +Migalastat α-Gal A activity: 5050 ± 268 nmol/mg/h
  +Migalastat α-Gal A activity % WT: 14.3 ± 0.6 % WT
[3]; HEK293, 10 μM migalastat minus baseline, read-out: Absolute increase at 10 μM (% WT)
  activation at 10 µM: 12.6%
[4]
  deaths: No deaths were reported
[5]; Stage 1, 6/34 patients receiving migalastat
  patients with nasopharyngitis: 18%
[5]; Stage 1, 12/34 patients receiving migalastat
  patients with headache: 35%
[5]; Stage 1, migalastat group
  patients experiencing serious adverse events: 2 patients
[5]; Stage 2
  patients experiencing serious adverse events: 5 patients
[5]; Stage 2, 7/63 patients
  patients with procedural pain (related to kidney biopsies): 11%
[5]; Stage 2, 9/63 patients
  patients with headache: 14%
[5]; as defined in Banikazemi et al.
  end-stage renal disease, cardiac death, stroke: no progression to end-stage renal disease, no cardiac death and no stroke
[5]; both deemed unrelated to migalastat
  patients who discontinued migalastat due to serious adverse events: Two
[5]; fatigue and paresthesia, same patient, months 12-24, resolved
  serious adverse events assessed as possibly related to migalastat by the investigator: Two
[5]; human, in vivo
  adverse events leading to migalastat discontinuation: No adverse events led to migalastat discontinuation
  vital sign, physical findings, laboratory, and ECG parameters: did not reveal any clinically relevant effect
[5]; judged unrelated to migalastat
  transient ischemic attack: single case
[5]; most adverse events
  severity of adverse events: mild or moderate in severity
[5]; open-label-extension
  patients experiencing serious adverse events: 11 patients
[5]; open-label-extension (months 12-24), 9/57 patients
  patients with (treatment-emergent) proteinuria: 16%
[5]; [10]
  patients with bronchitis: 11%
  patients with headache: 11%
[5]; patients with baseline proteinuria <300 mg/24-h
  patients in whom 24-hour urine protein remained stable during migalastat treatment: 23/28
Plasma lyso-Gb3; classic males
  average (SD) change in plasma lyso-Gb3: −36.04 (34.48) nmol/L
Plasma lyso-Gb3; other patients
  average (SD) change in plasma lyso-Gb3: −16.33 (19.73) nmol/L
[6]; classic male patients switched from placebo to migalastat at month 6, next 6 months
  mean (SD) change in GL-3 inclusions per kidney interstitial capillary: −0.7 (0.91)
[6]; total amenable patient population, 6 months of migalastat treatment
  mean change in GL-3 inclusions: −0.25
[6]; total patient population, after switching from placebo to migalastat at month 6
  mean change in GL-3 inclusions: −0.33
